Data set [1] concerns the target CYP3A4 (Homo sapiens, UniProt P08684). Put plainly: CYP phenotyping. The note with it: CYP3A4 bactosomes, 1 µM DMT fumarate.
For data set [2], the target named is T1, CYP2C8 (Homo sapiens, UniProt P10632).
T1 sequence (P10632 1-490): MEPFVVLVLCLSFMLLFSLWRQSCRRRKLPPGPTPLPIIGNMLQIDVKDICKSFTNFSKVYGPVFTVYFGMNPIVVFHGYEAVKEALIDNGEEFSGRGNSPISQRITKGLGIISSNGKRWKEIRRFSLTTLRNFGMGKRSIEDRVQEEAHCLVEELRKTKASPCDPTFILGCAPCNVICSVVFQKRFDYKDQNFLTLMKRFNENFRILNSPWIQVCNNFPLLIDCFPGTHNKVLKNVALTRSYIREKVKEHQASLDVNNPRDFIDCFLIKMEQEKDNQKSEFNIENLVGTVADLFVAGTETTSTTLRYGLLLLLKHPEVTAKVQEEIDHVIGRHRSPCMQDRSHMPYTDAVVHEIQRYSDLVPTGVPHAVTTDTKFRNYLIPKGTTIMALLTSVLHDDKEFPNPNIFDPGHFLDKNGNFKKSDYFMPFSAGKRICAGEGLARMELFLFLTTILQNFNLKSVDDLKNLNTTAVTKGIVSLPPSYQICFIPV
Kind of data set: CYP phenotyping. The note with it: CYP2C8 bactosomes, 1 µM DMT fumarate.

For data set [3], the system named is MAO-A. Put plainly: Metabolic stability in human liver mitochondrial fraction. In kind it is in vitro ADME. To be noted: both, liver mitochondrial fractions, with clorgyline 100 nM.
The target in data set [4] is CYP2D6 (Homo sapiens, UniProt P10635). Put plainly: CYP phenotyping. To be noted: CYP2D6 bactosomes, 1 µM DMT fumarate.
Sequence of CYP2D6 (P10635 whole entry): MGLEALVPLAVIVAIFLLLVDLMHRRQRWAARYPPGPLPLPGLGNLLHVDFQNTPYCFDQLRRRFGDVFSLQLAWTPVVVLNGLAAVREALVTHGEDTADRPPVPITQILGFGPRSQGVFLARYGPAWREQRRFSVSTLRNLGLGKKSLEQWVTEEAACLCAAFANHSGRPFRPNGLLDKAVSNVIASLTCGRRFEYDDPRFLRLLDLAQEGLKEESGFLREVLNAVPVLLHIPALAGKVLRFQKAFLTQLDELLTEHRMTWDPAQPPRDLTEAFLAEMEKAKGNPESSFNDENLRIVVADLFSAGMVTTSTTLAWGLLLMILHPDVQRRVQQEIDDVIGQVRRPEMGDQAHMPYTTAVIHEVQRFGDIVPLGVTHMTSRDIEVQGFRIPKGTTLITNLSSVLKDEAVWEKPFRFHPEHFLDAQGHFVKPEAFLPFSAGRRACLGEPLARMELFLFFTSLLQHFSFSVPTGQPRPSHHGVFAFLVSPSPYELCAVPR
Data set [5] has as its target CYP3A5 (Homo sapiens, UniProt P20815). Kind of data set: CYP phenotyping. To be noted: CYP3A5 bactosomes, 1 µM DMT fumarate.
The nature of data set [6]: Plasma protein binding. To be noted: plasma protein binding result.
A short description of data set [7]: Blood:plasma ratio. In kind it is in vitro ADME. To be noted: human, fresh whole blood and plasma.
The target of data set [8] is T2, CYP2B6 (Homo sapiens, UniProt P20813).
T2 sequence (P20813 1-491): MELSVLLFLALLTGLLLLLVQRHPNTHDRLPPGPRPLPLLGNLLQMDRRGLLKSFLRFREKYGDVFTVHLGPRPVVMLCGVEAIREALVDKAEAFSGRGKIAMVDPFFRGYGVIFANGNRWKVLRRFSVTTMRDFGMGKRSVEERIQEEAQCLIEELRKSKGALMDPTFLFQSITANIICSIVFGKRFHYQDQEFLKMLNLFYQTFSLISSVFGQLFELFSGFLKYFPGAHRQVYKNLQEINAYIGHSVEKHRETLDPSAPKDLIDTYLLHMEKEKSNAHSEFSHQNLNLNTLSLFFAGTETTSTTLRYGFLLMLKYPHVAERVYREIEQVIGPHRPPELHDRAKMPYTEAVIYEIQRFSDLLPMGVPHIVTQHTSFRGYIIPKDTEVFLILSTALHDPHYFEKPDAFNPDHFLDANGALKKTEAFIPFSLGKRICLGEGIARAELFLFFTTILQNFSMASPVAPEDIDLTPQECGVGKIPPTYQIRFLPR
Kind of data set: CYP phenotyping. To be noted: CYP2B6 bactosomes, 1 µM DMT fumarate.

Data set [9] can be described thus: physchem. To be noted: pH 7.4. In kind it is physicochemical.
Data set [10] has as its target T3, CYP1A2 (Homo sapiens, UniProt P05177).
T3 sequence (P05177 1-516): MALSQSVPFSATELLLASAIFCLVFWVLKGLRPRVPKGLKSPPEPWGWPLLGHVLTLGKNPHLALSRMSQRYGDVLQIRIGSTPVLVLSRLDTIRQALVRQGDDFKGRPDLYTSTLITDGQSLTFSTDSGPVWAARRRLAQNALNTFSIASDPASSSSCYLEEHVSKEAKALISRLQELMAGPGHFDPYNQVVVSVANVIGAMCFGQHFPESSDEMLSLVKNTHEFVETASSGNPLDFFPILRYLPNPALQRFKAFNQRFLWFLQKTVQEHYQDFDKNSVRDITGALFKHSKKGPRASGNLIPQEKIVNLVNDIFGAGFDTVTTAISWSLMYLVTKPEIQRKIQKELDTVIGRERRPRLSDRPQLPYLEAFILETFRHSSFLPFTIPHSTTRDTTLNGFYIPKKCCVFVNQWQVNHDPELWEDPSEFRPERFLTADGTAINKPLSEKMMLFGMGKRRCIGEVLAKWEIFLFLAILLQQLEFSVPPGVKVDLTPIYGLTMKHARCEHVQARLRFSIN
Kind of data set: CYP phenotyping. The note with it: CYP1A2 bactosomes, 1 µM DMT fumarate.

For data set [11] the following is noted: bolus IV administration, healthy volunteers; cited from earlier work.
For data set [12], the system named is healthy subjects. Kind of data set: Phase I clinical safety and tolerability. In kind it is in vivo, human. To be noted: all four doses, 9–21.5 mg IV.
The target in data set [13] is CYP2C19 (Homo sapiens, UniProt P33261). Put plainly: CYP phenotyping. The note with it: CYP2C19 bactosomes, 1 µM DMT fumarate.
Sequence of CYP2C19 (P33261 whole entry): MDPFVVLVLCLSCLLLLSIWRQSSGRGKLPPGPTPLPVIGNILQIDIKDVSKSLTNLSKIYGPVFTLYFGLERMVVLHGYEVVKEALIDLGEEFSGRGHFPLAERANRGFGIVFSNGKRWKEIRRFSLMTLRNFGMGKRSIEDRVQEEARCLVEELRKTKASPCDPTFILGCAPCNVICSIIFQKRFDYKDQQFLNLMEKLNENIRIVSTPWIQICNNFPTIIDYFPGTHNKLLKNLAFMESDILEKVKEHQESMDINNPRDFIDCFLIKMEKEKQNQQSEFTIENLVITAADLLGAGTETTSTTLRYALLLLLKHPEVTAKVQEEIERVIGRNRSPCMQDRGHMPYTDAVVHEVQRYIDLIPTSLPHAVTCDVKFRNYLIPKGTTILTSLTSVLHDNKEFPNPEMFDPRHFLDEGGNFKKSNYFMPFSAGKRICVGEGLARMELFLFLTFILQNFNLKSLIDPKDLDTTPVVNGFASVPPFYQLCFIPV
The target of data set [14] is CYP2C9 (Homo sapiens, UniProt P11712). Kind of data set: CYP phenotyping. To be noted: CYP2C9 bactosomes, 1 µM DMT fumarate.
Sequence of CYP2C9 (P11712 whole entry): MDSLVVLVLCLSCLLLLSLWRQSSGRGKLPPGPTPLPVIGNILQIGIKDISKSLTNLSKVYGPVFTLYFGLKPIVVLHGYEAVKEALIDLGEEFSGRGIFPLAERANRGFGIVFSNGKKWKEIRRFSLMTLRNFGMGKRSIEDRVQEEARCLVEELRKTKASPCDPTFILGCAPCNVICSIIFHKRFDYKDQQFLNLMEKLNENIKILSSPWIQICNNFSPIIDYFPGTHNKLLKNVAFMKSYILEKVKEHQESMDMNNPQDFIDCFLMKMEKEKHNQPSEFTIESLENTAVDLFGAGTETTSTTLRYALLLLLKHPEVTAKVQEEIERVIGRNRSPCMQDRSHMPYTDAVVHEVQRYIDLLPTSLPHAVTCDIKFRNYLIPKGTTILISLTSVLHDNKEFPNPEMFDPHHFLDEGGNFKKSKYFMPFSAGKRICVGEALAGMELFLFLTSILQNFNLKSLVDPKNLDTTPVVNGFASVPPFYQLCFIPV
The format of data set [15] is in vivo, human.

Values joined by “and” are separate entries in the source; they are usually repeats but may differ in a detail not shown here. Equal values may be shown once.

Sequence of CYP3A5 (P20815 whole entry): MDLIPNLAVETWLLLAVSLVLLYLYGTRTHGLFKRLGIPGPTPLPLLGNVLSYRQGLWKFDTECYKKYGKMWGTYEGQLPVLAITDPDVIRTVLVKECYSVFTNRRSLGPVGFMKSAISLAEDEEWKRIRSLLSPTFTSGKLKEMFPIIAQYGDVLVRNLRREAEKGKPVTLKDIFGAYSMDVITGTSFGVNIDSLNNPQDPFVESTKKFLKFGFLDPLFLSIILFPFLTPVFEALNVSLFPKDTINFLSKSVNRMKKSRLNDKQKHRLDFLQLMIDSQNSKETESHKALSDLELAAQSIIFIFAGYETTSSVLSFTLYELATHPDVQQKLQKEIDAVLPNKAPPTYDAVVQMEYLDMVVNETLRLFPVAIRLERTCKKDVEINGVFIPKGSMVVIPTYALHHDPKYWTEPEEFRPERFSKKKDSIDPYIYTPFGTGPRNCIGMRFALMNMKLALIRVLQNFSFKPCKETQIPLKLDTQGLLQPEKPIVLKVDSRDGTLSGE
Sequence of CYP3A4 (P08684 whole entry): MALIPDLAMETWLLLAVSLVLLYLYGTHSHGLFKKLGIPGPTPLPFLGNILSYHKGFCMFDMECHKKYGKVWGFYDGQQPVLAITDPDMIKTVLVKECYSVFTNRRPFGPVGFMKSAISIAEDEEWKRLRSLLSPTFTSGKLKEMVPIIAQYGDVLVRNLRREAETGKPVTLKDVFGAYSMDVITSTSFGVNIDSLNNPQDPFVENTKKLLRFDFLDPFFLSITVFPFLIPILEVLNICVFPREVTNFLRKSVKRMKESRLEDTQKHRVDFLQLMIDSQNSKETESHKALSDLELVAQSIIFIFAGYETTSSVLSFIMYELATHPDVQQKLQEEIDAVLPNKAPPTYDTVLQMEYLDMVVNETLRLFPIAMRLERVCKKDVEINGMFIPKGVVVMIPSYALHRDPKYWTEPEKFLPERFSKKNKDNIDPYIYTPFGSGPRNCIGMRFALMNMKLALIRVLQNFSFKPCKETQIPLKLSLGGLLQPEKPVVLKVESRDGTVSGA

By microsomal CLint is commonly meant the capacity of the preparation to metabolise the compound, expressed as a volume cleared per time. Higher therefore signals faster metabolism. Broadly, the logD is lipophilicity at a set pH, counting ionised and neutral species. Read a high logD as a more lipophilic compound. For orientation: half-life means how long it takes for the measured level to halve. A lower half-life goes with fast loss. `CN(C)CCc1c[nH]c2ccccc12` [DMT, N,N-dimethyltryptamine]: the “Intrinsic clearance (no turnover detected)” value in [1], in [2], in data set [5], in data set [8], in data set [10] and in data set [14] was less than 29 µl/min/nmol CYP in each case. In addition, the microsomal CLint at 3.1 µM in [3] is less than 3.9 µL/min/mg. For the same molecule, the Intrinsic clearance stood at 801 µl/min/nmol CYP in data set [4] and 37 µl/min/nmol CYP in data set [13]. The “Unbound in human plasma” value in data set [6] was > 65% and 67.7%. In addition, the blood plasma ratio at 30 min, 1 µM in data set [7] was determined as 1.53. In data set [9], this molecule registered a logD of 0.15. In addition, the “Time to peak blood concentrations” value in [11] is “approximately 2 min”. The Safety and tolerability entry in [12] is “safe and well tolerated”. In data set [12], the Serious adverse events result is on record as “no serious AEs”. For the same molecule, the “Mean measured concentrations of DMT at the 120 min and 240 min time points” value in data set [15] (all cohorts) is less than 0.1 ng/mL. Also, in data set [15] (human, plasma, intravenous, 6 mg, Individual C5min, following a 6 mg dose over 5 min, across all dose cohorts), the concentration at 5 min was in the range of 3.32 to 43 ng/mL. The half-life in data set [15] (human, plasma, iv, Mean elimination half-life (plasma), all doses, 9–21.5 mg IV 10-min infusion) is 10 to 12 min.

The record behind these values is paper PMC10122081 (European Journal of Drug Metabolism and Pharmacokinetics, 2023).
